In ChEMBL document CHEMBL1201862, “PubChem BioAssay data set” (2004):
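Exposure lasted 48 hours, with cells grown in 96-well plates and compounds tested at five concentrations. Abbreviation: GI50, concentration required for 50% inhibition of growth.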 Active and inactive are the calls of the source. Rule as the data show it: active = GI50 up to about 1.1 µM and inactive = higher.

Key:
Experiment in all cases: NCI anticancer screen, dose series, 48 h
[1] = system: 786-0
[2] = system: A498
[3] = system: A549
[4] = system: ACHN
[5] = system: BT-549
[6] = system: CAKI-1
[7] = system: COLO 205
[8] = system: DU-145
[9] = system: EKVX
[10] = system: HCC 2998
[11] = system: HCT-116
[12] = system: HCT-15
[13] = system: HL-60
[14] = system: HOP-62
[15] = system: HOP-92
[16] = system: HT-29
[17] = system: Hs-578T
[18] = system: IGROV-1
[19] = system: K562
[20] = system: KM12
[21] = system: LOX IMVI
[22] = system: M14
[23] = system: MCF7
[24] = system: MDA-MB-231
[25] = system: MDA-MB-435
[26] = system: MDA-N
[27] = system: MOLT-4
[28] = system: Malme-3M
[29] = system: NCI-H226
[30] = system: NCI-H23
[31] = system: NCI-H460
[32] = system: NCI-H522
[33] = system: NCI/ADR-RES
[34] = system: OVCAR-3
[35] = system: OVCAR-4
[36] = system: OVCAR-5
[37] = system: OVCAR-8
[38] = system: PC-3
[39] = system: RPMI-8226
[40] = system: RXF 393
[41] = system: SF-268
[42] = system: SF-295
[43] = system: SK-MEL-28
[44] = system: SK-MEL-5
[45] = system: SK-OV-3
[46] = system: SN12C
[47] = system: SNB-19
[48] = system: SNB-75
[49] = system: SW-620
[50] = system: T47D
[51] = system: TK-10
[52] = system: U-251
[53] = system: UACC-257
[54] = system: UACC-62
[55] = system: UO-31
[56] = system: CCRF-CEM
[57] = system: SF-539
[58] = system: SK-MEL-2
[59] = system: SR

## Nc1ccc(S(=O)(=O)c2ccc(NC(=O)c3cccnc3)cc2)cc1
[1]
  GI50: > 100 µM (inactive)
[2]
  GI50: > 100 µM (inactive)
[3]
  GI50: > 100 µM (inactive)
[4]
  GI50: > 100 µM (inactive)
[5]
  GI50: 92 µM (inactive)
[6]
  GI50: > 100 µM (inactive)
[7]
  GI50: > 100 µM (inactive)
[8]
  GI50: > 100 µM (inactive)
[9]
  GI50: 64.9 µM (inactive)
[10]
  GI50: > 100 µM (inactive)
[11]
  GI50: > 100 µM (inactive)
[12]
  GI50: > 100 µM
[13]
  GI50: 45.1 µM (inactive)
[14]
  GI50: > 100 µM (inactive)
[15]
  GI50: > 100 µM (inactive)
[16]
  GI50: > 100 µM (inactive)
[17]
  GI50: 80.9 µM (inactive)
[18]
  GI50: > 100 µM (inactive)
[19]
  GI50: 78 µM (inactive)
[20]
  GI50: > 100 µM (inactive)
[21]
  GI50: > 100 µM (inactive)
[22]
  GI50: > 100 µM (inactive)
[23]
  GI50: > 100 µM (inactive)
[24]
  GI50: > 100 µM (inactive)
[25]
  GI50: > 100 µM (inactive)
[26]
  GI50: > 100 µM (inactive)
[27]
  GI50: 57.5 µM (inactive)
[28]
  GI50: > 100 µM (inactive)
[29]
  GI50: > 100 µM (inactive)
[30]
  GI50: > 100 µM (inactive)
[31]
  GI50: > 100 µM (inactive)
[32]
  GI50: 53.2 µM (inactive)
[33]
  GI50: > 100 µM (inactive)
[34]
  GI50: > 100 µM (inactive)
[35]
  GI50: 62.4 µM (inactive)
[36]
  GI50: > 100 µM (inactive)
[37]
  GI50: > 100 µM (inactive)
[38]
  GI50: 75 µM (inactive)
[39]
  GI50: 36.6 µM (inactive)
[40]
  GI50: 56.4 µM (inactive)
[41]
  GI50: > 100 µM (inactive)
[42]
  GI50: > 100 µM (inactive)
[43]
  GI50: > 100 µM (inactive)
[44]
  GI50: 42.4 µM (inactive)
[45]
  GI50: > 100 µM (inactive)
[46]
  GI50: > 100 µM (inactive)
[47]
  GI50: > 100 µM (inactive)
[48]
  GI50: 30.8 µM (inactive)
[49]
  GI50: > 100 µM (inactive)
[50]
  GI50: 36.8 µM (inactive)
[51]
  GI50: > 100 µM (inactive)
[52]
  GI50: > 100 µM (inactive)
[53]
  GI50: 53 µM (inactive)
[54]
  GI50: > 100 µM (inactive)
[55]
  GI50: > 100 µM (inactive)

## COC(=O)CN(CC(=O)NCCNC(=O)OC(C)(C)C)C1CCCCC1N(CC(=O)OC)CC(=O)OC (stereo not drawn)
[1]
  GI50: > 100 µM (inactive)
[2]
  GI50: > 100 µM (inactive)
[3]
  GI50: > 100 µM (inactive)
[4]
  GI50: > 100 µM (inactive)
[5]
  GI50: > 100 µM (inactive)
[6]
  GI50: > 100 µM (inactive)
[56]
  GI50: > 100 µM (inactive)
[7]
  GI50: > 100 µM (inactive)
[8]
  GI50: > 100 µM (inactive)
[9]
  GI50: > 100 µM (inactive)
[10]
  GI50: > 100 µM (inactive)
[11]
  GI50: > 100 µM (inactive)
[12]
  GI50: > 100 µM
[13]
  GI50: > 100 µM (inactive)
[14]
  GI50: > 100 µM (inactive)
[16]
  GI50: > 100 µM (inactive)
[17]
  GI50: > 100 µM (inactive)
[18]
  GI50: > 100 µM (inactive)
[19]
  GI50: > 100 µM (inactive)
[20]
  GI50: > 100 µM (inactive)
[21]
  GI50: > 100 µM (inactive)
[23]
  GI50: > 100 µM (inactive)
[24]
  GI50: > 100 µM (inactive)
[25]
  GI50: > 100 µM (inactive)
[26]
  GI50: > 100 µM (inactive)
[27]
  GI50: > 100 µM (inactive)
[28]
  GI50: > 100 µM (inactive)
[29]
  GI50: 48 µM (inactive)
[30]
  GI50: > 100 µM (inactive)
[31]
  GI50: > 100 µM (inactive)
[32]
  GI50: > 100 µM (inactive)
[33]
  GI50: > 100 µM (inactive)
[34]
  GI50: > 100 µM (inactive)
[36]
  GI50: > 100 µM (inactive)
[37]
  GI50: > 100 µM (inactive)
[38]
  GI50: > 100 µM (inactive)
[39]
  GI50: > 100 µM (inactive)
[41]
  GI50: > 100 µM (inactive)
[42]
  GI50: > 100 µM (inactive)
[57]
  GI50: > 100 µM (inactive)
[43]
  GI50: > 100 µM (inactive)
[58]
  GI50: > 100 µM (inactive)
[44]
  GI50: > 100 µM (inactive)
[45]
  GI50: > 100 µM (inactive)
[46]
  GI50: > 100 µM (inactive)
[47]
  GI50: > 100 µM (inactive)
[59]
  GI50: > 100 µM (inactive)
[49]
  GI50: > 100 µM (inactive)
[50]
  GI50: > 100 µM (inactive)
[51]
  GI50: > 100 µM (inactive)
[52]
  GI50: > 100 µM (inactive)
[53]
  GI50: > 100 µM (inactive)
[54]
  GI50: > 100 µM (inactive)
[55]
  GI50: > 100 µM (inactive)

## COc1cc([N+](=O)[O-])c(S(=O)(=O)O)cc1N
[1]
  GI50: > 100 µM (inactive)
[2]
  GI50: > 100 µM (inactive)
[3]
  GI50: > 100 µM (inactive)
[4]
  GI50: > 100 µM (inactive)
[5]
  GI50: > 100 µM (inactive)
[6]
  GI50: > 100 µM (inactive)
[56]
  GI50: > 100 µM (inactive)
[7]
  GI50: > 100 µM (inactive)
[8]
  GI50: > 100 µM (inactive)
[9]
  GI50: > 100 µM (inactive)
[11]
  GI50: > 100 µM (inactive)
[12]
  GI50: > 100 µM
[13]
  GI50: > 100 µM (inactive)
[14]
  GI50: > 100 µM (inactive)
[16]
  GI50: > 100 µM (inactive)
[17]
  GI50: > 100 µM (inactive)
[18]
  GI50: > 100 µM (inactive)
[19]
  GI50: > 100 µM (inactive)
[20]
  GI50: > 100 µM (inactive)
[21]
  GI50: > 100 µM (inactive)
[22]
  GI50: > 100 µM (inactive)
[23]
  GI50: > 100 µM (inactive)
[24]
  GI50: > 100 µM (inactive)
[25]
  GI50: > 100 µM (inactive)
[26]
  GI50: > 100 µM (inactive)
[27]
  GI50: > 100 µM (inactive)
[29]
  GI50: > 100 µM (inactive)
[30]
  GI50: > 100 µM (inactive)
[31]
  GI50: > 100 µM (inactive)
[32]
  GI50: > 100 µM (inactive)
[33]
  GI50: > 100 µM (inactive)
[34]
  GI50: > 100 µM (inactive)
[35]
  GI50: > 100 µM (inactive)
[36]
  GI50: > 100 µM (inactive)
[37]
  GI50: > 100 µM (inactive)
[38]
  GI50: > 100 µM (inactive)
[39]
  GI50: > 100 µM (inactive)
[41]
  GI50: > 100 µM (inactive)
[57]
  GI50: > 100 µM (inactive)
[43]
  GI50: > 100 µM (inactive)
[58]
  GI50: > 100 µM (inactive)
[44]
  GI50: > 100 µM (inactive)
[45]
  GI50: > 100 µM (inactive)
[46]
  GI50: > 100 µM (inactive)
[47]
  GI50: > 100 µM (inactive)
[48]
  GI50: > 100 µM (inactive)
[59]
  GI50: > 100 µM (inactive)
[49]
  GI50: > 100 µM (inactive)
[50]
  GI50: > 100 µM (inactive)
[51]
  GI50: > 100 µM (inactive)
[52]
  GI50: > 100 µM (inactive)
[53]
  GI50: > 100 µM (inactive)
[54]
  GI50: > 100 µM (inactive)
[55]
  GI50: > 100 µM (inactive)
